Measurements from ChEMBL document CHEMBL1201862, “PubChem BioAssay data set” (2004).
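Cultured in 96-well plates, cells were exposed to test compound for 48 hours across five concentrations. Abbreviation: GI50, concentration required for 50% inhibition of growth.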 Activity calls are given as the source filed them. No stated cut-off is given here; in the data, active = GI50 up to about 1.1 µM and inactive = higher.

What was measured:
Test in all cases: inhibition of tumour cell growth, NCI panel, 48 h
SF-295 = system: SF-295
SK-MEL-2 = system: SK-MEL-2
UACC-257 = system: UACC-257
SK-OV-3 = system: SK-OV-3
LOX IMVI = system: LOX IMVI
MCF7 = system: MCF7
EKVX = system: EKVX
SN12C = system: SN12C
SR = system: SR
HT-29 = system: HT-29
UACC-62 = system: UACC-62
A549 = system: A549
U-251 = system: U-251
SNB-19 = system: SNB-19
Malme-3M = system: Malme-3M
NCI-H522 = system: NCI-H522
HCT-116 = system: HCT-116
COLO 205 = system: COLO 205
CAKI-1 = system: CAKI-1
RPMI-8226 = system: RPMI-8226

| SMILES | GI50 (SF-295) | GI50 (SK-MEL-2) | GI50 (UACC-257) | GI50 (SK-OV-3) | GI50 (LOX IMVI) | GI50 (MCF7) | GI50 (EKVX) | GI50 (SN12C) | GI50 (SR) | GI50 (HT-29) | GI50 (UACC-62) | GI50 (A549) | GI50 (U-251) | GI50 (SNB-19) | GI50 (Malme-3M) | GI50 (NCI-H522) | GI50 (HCT-116) | GI50 (COLO 205) | GI50 (CAKI-1) | GI50 (RPMI-8226) |
| --- | --- | --- | --- | --- | --- | --- | --- | --- | --- | --- | --- | --- | --- | --- | --- | --- | --- | --- | --- | --- |
| CC1CCCCNC1=S (stereo not given) | > 10 µM (inactive) | > 10 µM (inactive) | > 10 µM (inactive) | > 10 µM (inactive) | > 10 µM (inactive) | > 10 µM (inactive) | > 10 µM (inactive) | > 10 µM (inactive) | > 10 µM (inactive) | > 10 µM (inactive) | > 10 µM (inactive) | > 10 µM (inactive) | > 10 µM (inactive) | > 10 µM (inactive) | > 10 µM (inactive) | – | – | – | – | – |
| O=P(O)(Cc1ccccc1)c1ccccc1-c1ccccc1 | > 100 µM (inactive) | > 100 µM (inactive) | > 100 µM (inactive) | > 100 µM (inactive) | > 100 µM (inactive) | > 100 µM (inactive) | 41.9 µM (inactive) | > 100 µM (inactive) | > 100 µM (inactive) | > 100 µM (inactive) | > 100 µM (inactive) | 56 µM (inactive) | 57.1 µM (inactive) | > 100 µM (inactive) | > 100 µM (inactive) | > 100 µM (inactive) | > 100 µM (inactive) | 57.8 µM (inactive) | > 100 µM (inactive) | – |
| [N-]=[N+]=NC[C@H]1OCO[C@H](CN=[N+]=[N-])[C@H]2OCCOCCOc3ccccc3OCCOCCO[C@@H]21 | > 100 µM (inactive) | > 100 µM (inactive) | > 100 µM (inactive) | > 100 µM (inactive) | > 100 µM (inactive) | > 100 µM (inactive) | > 100 µM (inactive) | > 100 µM (inactive) | – | > 100 µM (inactive) | > 100 µM (inactive) | > 100 µM (inactive) | > 100 µM (inactive) | > 100 µM (inactive) | > 100 µM (inactive) | > 100 µM (inactive) | > 100 µM (inactive) | > 100 µM (inactive) | > 100 µM (inactive) | > 100 µM (inactive) |
| CSc1nc2c(ncn2C2OC(CO)C(O)C(O)C2O)c(=O)n1C (stereo not given) | > 100 µM (inactive) | > 100 µM (inactive) | > 100 µM (inactive) | > 100 µM (inactive) | > 100 µM (inactive) | > 100 µM (inactive) | > 100 µM (inactive) | > 100 µM (inactive) | – | > 100 µM (inactive) | > 100 µM (inactive) | > 100 µM (inactive) | > 100 µM (inactive) | > 100 µM (inactive) | > 100 µM (inactive) | > 100 µM (inactive) | > 100 µM (inactive) | > 100 µM (inactive) | – | > 100 µM (inactive) |
| CCOC(=O)CC[C@H](NC(=O)N[C@H](C)c1ccccc1)C(=O)OCC | > 100 µM (inactive) | 23.4 µM (inactive) | 18.3 µM (inactive) | > 100 µM (inactive) | 55.7 µM (inactive) | 32.7 µM (inactive) | > 100 µM (inactive) | 40.6 µM (inactive) | 84.9 µM (inactive) | > 100 µM (inactive) | 16.1 µM (inactive) | > 100 µM (inactive) | 39.8 µM (inactive) | > 100 µM (inactive) | – | – | > 100 µM (inactive) | 18.7 µM (inactive) | > 100 µM (inactive) | 41 µM (inactive) |
| c1csc(-c2ccsc2-c2ccsc2)c1 | 57.4 µM (inactive) | 17.5 µM (inactive) | > 100 µM (inactive) | > 100 µM (inactive) | > 100 µM (inactive) | > 100 µM (inactive) | 53.8 µM (inactive) | > 100 µM (inactive) | 33.1 µM (inactive) | > 100 µM (inactive) | > 100 µM (inactive) | 43.1 µM (inactive) | > 100 µM (inactive) | – | – | – | 60.8 µM (inactive) | 73.8 µM (inactive) | > 100 µM (inactive) | 30.2 µM (inactive) |
| CCC1CN(C(=O)c2ccccc2)C(Cc2c[nH]c3ccccc23)C(=O)C1CC(=O)OC (stereo not given) | > 100 µM (inactive) | > 100 µM (inactive) | > 100 µM (inactive) | > 100 µM (inactive) | 90.6 µM (inactive) | 57.5 µM (inactive) | 77.4 µM (inactive) | > 100 µM (inactive) | 36.6 µM (inactive) | 28 µM (inactive) | 32.1 µM (inactive) | – | 41.6 µM (inactive) | – | 55.6 µM (inactive) | 50.9 µM (inactive) | – | > 100 µM (inactive) | 54.7 µM (inactive) | – |
| Cc1ccc(S(=O)(=O)N(CCN)c2cc3c4c(c2)Oc2cccc5c2C4c2c(cccc2O3)O5)cc1 | 21.9 µM (inactive) | 22.8 µM (inactive) | 30.5 µM (inactive) | 27 µM (inactive) | 23.2 µM (inactive) | 20.7 µM (inactive) | 13.6 µM (inactive) | 34 µM (inactive) | 0.724 µM (active) | 14.9 µM (inactive) | 47.3 µM (inactive) | 25.7 µM (inactive) | 19.6 µM (inactive) | 29.4 µM (inactive) | 10.5 µM (inactive) | – | 16.3 µM (inactive) | 22.6 µM (inactive) | – | 30.8 µM (inactive) |
| Cc1cc(O)cc(O)c1/N=N/c1ccc([N+](=O)[O-])cc1 | > 100 µM (inactive) | 15.4 µM (inactive) | 25.1 µM (inactive) | > 100 µM (inactive) | 23.7 µM (inactive) | 16.5 µM (inactive) | 22.3 µM (inactive) | 5.71 µM (inactive) | – | 29.3 µM (inactive) | 12.9 µM (inactive) | 30.1 µM (inactive) | 16.7 µM (inactive) | 37.3 µM (inactive) | 20.2 µM (inactive) | 3.48 µM (inactive) | 3.51 µM (inactive) | 30.5 µM (inactive) | 14.2 µM (inactive) | 5.22 µM (inactive) |
| Cc1c(N)nc(C2CC(=O)N2CC(N)C(N)=O)nc1C(=O)NC(C(=O)NC(C)C(O)C(C)C(=O)NC(C(=O)NCCc1nc(-c2nc(C(=O)NCCNCC(C)O)cs2)cs1)C(C)O)C(OC1OC(CO)C(O)C(O)C1OC1OC(CO)C(O)C(OC(N)=O)C1O)c1c[nH]cn1 (stereo not given) | 0.167 µM (active) | 38.1 µM (inactive) | 0.528 µM (active) | 8.41 µM (inactive) | 0.184 µM (active) | 13.8 µM (inactive) | > 41.1 µM (inactive) | 1.45 µM (inactive) | – | 21.3 µM (inactive) | 0.441 µM (active) | 3.28 µM (inactive) | 1.83 µM (inactive) | 5.38 µM (inactive) | 0.336 µM (active) | 0.462 µM (active) | 0.148 µM (active) | 3.08 µM (inactive) | < 0.0426 µM (active) | 9.02 µM (inactive) |
| O=NN1C(c2ccccc2)C2CCCC(C2=O)C1c1ccccc1 (stereo not given) | 30.8 µM (inactive) | 20.2 µM (inactive) | 24 µM (inactive) | 24.5 µM (inactive) | 22.9 µM (inactive) | 20.7 µM (inactive) | 28.4 µM (inactive) | 26.2 µM (inactive) | – | 18.1 µM (inactive) | 20.4 µM (inactive) | 34 µM (inactive) | 29.3 µM (inactive) | 42.6 µM (inactive) | 7.53 µM (inactive) | 19.1 µM (inactive) | 25.5 µM (inactive) | 17.5 µM (inactive) | 41.4 µM (inactive) | 22.3 µM (inactive) |
| O=[N+]([O-])c1ccc(/C=C/c2ccc(/N=N/c3ccc(/C=C/c4ccc([N+](=O)[O-])cc4S(=O)(=O)O)c(S(=O)(=O)O)c3)cc2S(=O)(=O)O)c(S(=O)(=O)O)c1 | > 100 µM (inactive) | > 100 µM (inactive) | > 100 µM (inactive) | > 100 µM (inactive) | > 100 µM (inactive) | > 100 µM (inactive) | > 100 µM (inactive) | > 100 µM (inactive) | – | > 100 µM (inactive) | > 100 µM (inactive) | > 100 µM (inactive) | > 100 µM (inactive) | – | > 100 µM (inactive) | > 100 µM (inactive) | > 100 µM (inactive) | > 100 µM (inactive) | – | – |
| C[O+]=C1C=CC(=C2SC(c3ccccc3)(c3ccccc3)c3ccccc32)C=C1.[O-][Cl+3]([O-])([O-])[O-] | 22.1 µM (inactive) | 15.6 µM (inactive) | 16.6 µM (inactive) | 38 µM (inactive) | 18 µM (inactive) | 25.4 µM (inactive) | 17.8 µM (inactive) | 20 µM (inactive) | – | 15 µM (inactive) | 18.7 µM (inactive) | 22.5 µM (inactive) | 22.6 µM (inactive) | 39.8 µM (inactive) | 18.8 µM (inactive) | 20.7 µM (inactive) | 10.3 µM (inactive) | 17.3 µM (inactive) | 30.9 µM (inactive) | 17.5 µM (inactive) |
| Oc1ccc2ccccc2c1Cc1c(O)ccc2ccccc12 | 16.7 µM (inactive) | 18.6 µM (inactive) | 19.5 µM (inactive) | 17.5 µM (inactive) | 15.2 µM (inactive) | 21.8 µM (inactive) | 16.2 µM (inactive) | 16.2 µM (inactive) | – | 22.1 µM (inactive) | 14 µM (inactive) | 18.1 µM (inactive) | 15.4 µM (inactive) | 18.4 µM (inactive) | 13.2 µM (inactive) | 10.7 µM (inactive) | 16.1 µM (inactive) | 17.9 µM (inactive) | 17.1 µM (inactive) | 16.4 µM (inactive) |
| Nc1nc2[nH]c(=O)cnc2c(=O)[nH]1 [ISOXANTHOPTERIN] | > 125 µM (inactive) | > 125 µM (inactive) | > 125 µM (inactive) | > 125 µM (inactive) | > 125 µM (inactive) | > 125 µM (inactive) | > 125 µM (inactive) | > 125 µM (inactive) | – | > 125 µM (inactive) | > 125 µM (inactive) | > 125 µM (inactive) | > 125 µM (inactive) | > 125 µM (inactive) | > 108 µM (inactive) | > 19.8 µM (inactive) | > 125 µM (inactive) | > 125 µM (inactive) | > 125 µM (inactive) | > 125 µM (inactive) |
